Assays:
[1] = tested on: IL-4 induced germline ε transcription (ε promoter reporter) in naïve A5T4 cells; assay: Re-infection (DNA transfer) assay in naïve A5T4 reporter cells; also used for the functional profile of the mutants; assay type: cell-based, human; details: for functional category of the mutant compared to CL08wt: % change in reporter ratio calculated after subtracting 1.0 from the individual ratios; for Reporter Ratio: Table 2, CL08wt and mutants screened in the A5T4 reporter line
Description: The ability of peptide CL08wt (SEQ ID NO: 1) to inhibit germline ε transcription was confirmed in naïve cells. Briefly, Phoenix cells were transfected with a retroviral vector encoding a BFP-CL08wt peptide fusion as described in WO 99/58663 and WO 97/27213. Naïve A5T4 cells were infected with the resultant virions and grown for 3 days. The infected cells were stimulated with IL-4 (60 U/mL) and, after 3 days, the cells were assessed by FACS for BFP and GFP. […] The BFP fluorescence data corresponding to the BFP^+ and BFP^− populations are provided in Panel A. The GFP fluorescence data corresponding to the BFP^+ and BFP^− populations are presented in Panel B. The reporter ratio for this purpose is determined as the geometric mean of the GFP fluorescence of the BFP^− population divided by the geometric mean of the GFP fluorescence of the BFP^+ population. The reporter ratio for the CL08 in this re-infection assay was 1.39.
A collection of CL08 mutants was generated by replacing single or double amino acid residues in the sequence of CL08wt (SEQ ID NO: 1) with a different amino acid, typically an alanine, as described in copending application Ser. No. 10/095,659, entitled Methods of Identifying Protein Targets, filed Mar. 8, 2002. The functional profiles for the mutants derived from CL08wt (SEQ ID NO: 1) was obtained by constructing and screening for activity in the A5T4 reporter cell line in the manner described above. The activity of each mutant at the germline ε promoter is reflected in the reporter ratio, as described above. The reporter ratios were the functional values that were used to develop the functional profiles.
TABLE 2 depicts the amino acid sequences (the mutations are underlined) of the mutants tested and the measured reporter ratios when screening in the A5T4 reporter line.
Comparison of the interaction and functional profiles was performed by categorizing the mutants of CL08 based on the functional and interaction assays. Based on the reporter ratio, described in panel C of FIG. 5, each mutant was categorized into one of four functional categories: (1) reduction of function (ROF); (2) loss of function (LOF); (3) increase of function (IOF) or (4) functionally neutral (N), as compared to the activity of the wild type peptide, here CL08wt. As mentioned previously, cells expressing a peptide that inhibits germline ε transcription have reporter ratios of ≧1.1. Cells expressing a loss of function mutant have a reporter ratio of […]. […] Functionally neutral mutants have reporter ratios that fall within ±50% of that of the CL08wt (SEQ ID NO: 1) peptide. The % increase or decrease in reporter ratio is calculated after subtracting 1.0 from the individual ratios. […]

human BAP-37 (hBAP-37) = biological target: T1, human BAP-37 (hBAP-37) (Homo sapiens, UniProt Q99623); assay: β-galactosidase yeast two hybrid (YTH) interaction assay; assay type: binding; details: peptide as bait
T1 construct: expressed in transfected cells; prey cDNA from a library of the A5T4 reporter line (BJAB human B-cells)
Description: Potential binding partners for peptide CL08wt (SEQ ID NO: 1) were identified in a β-galactosidase yeast two-hybrid (YTH) assay using peptide CL08wt (SEQ ID NO: 1) as bait and a cDNA library constructed from the A5T4 reporter cell line as prey. Binding was assessed by β-galactosidase quantification using BetaFluor (Novagen) as a substrate. A negative interaction control (no cDNA fused downstream of the GAL4 activation domain sequence) was also run. A general outline of the YTH assay is illustrated in FIG. 6A. Following clustering, filtering to remove non-specific bait hits (e.g., GFP and BFP), singletons and clusters recognized by 10 or more cDNA baits (based upon historical YTH assays), 7 prey clones were identified as hits.
Potential targets identified in the YTH assay were reconfirmed as generally outlined in FIG. 7. The cDNA clones identified as hits in the YTH assay were purified and rescreened for interaction with the CL08wt peptide in YTH assay. The hit clones were also screened in a control assay for interaction with the BFP using a vector (pGBKT7) that contained only the BFP and not the CL08wt peptide. At this stage, 7 putative target clones remained.
The interaction of CL08wt (SEQ ID NO: 1) peptide and its mutants with the clones identified as potential targets for the peptide CL08wt (SEQ ID NO: 1) was then quantified in a β-galactosidase YTH assay. The YTH assay was performed in the manner described above. A general outline of this YTH assay is illustrated in FIG. 6B. For each clone tested, an interaction profile was developed by comparing the β-galactosidase activity of each mutant to that of the wild type peptide, as described above.
The interaction of these N, IOF and ROF mutants with different polypeptides encoded by the putative target clones were quantified using the YTH assay described above. […]

[2] = tested on: IL-4 induced germline ε transcription (ε promoter reporter) in A5T4 reporter cells; assay: A5T4 reporter line screening assay of library clones (HBEGF2a/GFP reporter, FACS); assay type: cell-based, human; details: geometric mean GFP fluorescence, +IL-4/+Dox to +IL-4/−Dox populations; IL-4 60 U/mL, Dox 10 ng/ml; ≧1.1 = inhibition
Text: Peptide CL08wt (SEQ ID NO: 1) was identified by screening a retroviral library of random peptide 20-mers for the ability to inhibit IL-4 induced germline ε transcription using the HBEGF2a/[…] dual reporter phenotypic screening system described in WO 01/31232. To construct the random library, A5T4 reporter cells (described in more detail below) were infected with an infectious retroviral library of random peptide 20-mers (prepared as described in WO 97/27213; see also WO 01/34806 at page 39, line 36 through page 40, line 19). The retroviral vector used includes a gene encoding blue fluorescent protein (BFP) fused upstream of the region encoding the random peptide via a linker region encoding an α-helical peptide linker (expression fusion product is referred to as “BFP-peptide”). Expression of the BFP-peptide product is controlled by a promoter sensitive to the tetracycline-regulated transactivator such that expression of the BFP-peptide is regulated by tetracycline (Tet) or doxycycline (Dox). See U.S. patent application Ser. No. 10/096,339 entitled “Methods and Compositions for Screening for Alter Cellular Phenotypes”, filed on Mar. 8, 2002. […]

[3] = tested on: ST486 endogenous α promoter; assay: TAQMAN assay of germline α transcription (selectivity); assay type: cell-based; details: ST486 cells stimulated with TGF-β 40 ng/ml; average of 3 values; p=0.7371
Description: The assay was similar to that described in the immediately preceding section, except that ST486 cells (ATCC #CRL-1647) engineered to express the tetracycline-regulated transactivator were infected and the infected cells were stimulated with TGF-β (40 ng/ml; Peprotech). The primers and probe, which are specific for the transcription product driven by the ST486 endogenous α promoter, were as follows (the probe was labeled at the 5′-end with Fam and at the 3′-end with Tamra): […]

T1 sequence (Q99623 whole entry): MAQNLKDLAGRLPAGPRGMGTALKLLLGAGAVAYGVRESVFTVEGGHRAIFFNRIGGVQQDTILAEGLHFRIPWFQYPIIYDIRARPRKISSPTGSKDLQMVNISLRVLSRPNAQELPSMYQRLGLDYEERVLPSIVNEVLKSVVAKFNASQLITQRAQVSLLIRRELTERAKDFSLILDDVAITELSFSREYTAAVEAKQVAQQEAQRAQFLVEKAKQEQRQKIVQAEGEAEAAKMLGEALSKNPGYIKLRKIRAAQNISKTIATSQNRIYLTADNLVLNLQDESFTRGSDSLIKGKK

Sequence: TGAAVELQINRSIMHYISSP (peptide encoded by synthetic oligomer) [CL08VH, double alanine mutant of CL08wt]
- functional category of the mutant compared to CL08wt [1]: ROF (a reduction of function of mutant (ROF) shows a >50% decrease in reporter ratio)
- binding to human BAP-37 in yeast two hybrid interaction assay (human BAP-37 (hBAP-37)): bind

Sequence: TGVHVAAQINRSIMHYISSP (peptide encoded by synthetic oligomer) [CL08EL, double alanine mutant of CL08wt]
- Reporter Ratio [1]: 1.43

Sequence: TGVHVELQIAASIMHYISSP (peptide encoded by synthetic oligomer) [CL08NR, double alanine mutant of CL08wt]
- functional category of the mutant compared to CL08wt [1]: IOF (An increase of function mutant (IOF) shows a >50% increase in reporter ratio)
- binding to human BAP-37 in yeast two hybrid interaction assay (human BAP-37 (hBAP-37)): bind

Sequence: TGVHVELQINRSIMAAISSP (peptide encoded by synthetic oligomer) [CL08HY, double alanine mutant of CL08wt]
- Reporter Ratio [1]: 1.54

Sequence: TGVHVELQINRSIMHYISSP (peptide encoded by synthetic oligomer) [CL08wt, 20-mer peptide from a random retroviral library, expressed as BFP-peptide fusion]
- Reporter Ratio [2]: 1.37
- endogenous α inhibition ratio [3]: 1.06
- binding to human BAP-37 in yeast two hybrid interaction assay (human BAP-37 (hBAP-37)): bind

Reference: patent publication US7189523B2, “Methods of identifying compounds that modulate IL-4 receptor-mediated IgE synthesis utilizing a B-cell associated protein” (Rigel Pharmaceuticals, Inc., priority 2002, dated 2007)
